24 compounds from patent US8778964B2, “Hydroxy-substituted imidazo[1,2-a]-pyridinecarboxamides and their use” (Bayer Pharma Aktiengesellschaft, priority 2012, dated 2014) can be followed below.

Each structure is given as a SMILES string. Structures can show the parent of a compound that is named as a salt.

The test system of the assay is recombinant guanylate cyclase reporter cell line. As to the kind of experiment: Action on recombinant guanylate cyclase reporter cell line (MEC). Format: cell-based. To be noted: in some cases mean values obtained from individual determinations. A digest of the protocol:
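Cell-based reporter assay with recombinant guanylate cyclase expressed in a reporter cell line, per a published method. Activity reported as minimal effective concentration (MEC), in some cases as the mean of individual determinations.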
As usually defined, the minimal effective concentration is the lowest level tested that produced the effect sought. Turning to `CC[C@H](CO)NC(=O)c1c(C)nc2c(OCc3c(F)cccc3F)cccn12` [Example 43, 8-[(2,6-Difluorobenzyl)oxy]-N-[(2R)-1-hydroxybutan-2-yl]-2-methylimidazo[1,2-a]pyridine-3-carboxamide], the minimal effective concentration worked out at 0.16 µM.
The same measure for `CC[C@H](CO)NC(=O)c1c(C)nc2c(OCc3cccc(F)c3F)cccn12` [Example 44, 8-[(2,3-difluorobenzyl)oxy]-N-[(2R)-1-hydroxybutan-2-yl]-2-methylimidazo[1,2-a]-pyridine-3-carboxamide]: 0.3 µM; for `CC[C@H](CO)NC(=O)c1c(C)nc2c(OCc3cccc(Cl)c3Cl)cccn12` [Example 45, 8-[(2,3-dichlorobenzyl)oxy]-N-[(2R)-1-hydroxybutan-2-yl]-2-methylimidazo[1,2-a]-pyridine-3-carboxamide]: 0.65 µM; for `Cc1nc2c(OCc3ccccc3)cccn2c1C(=O)N[C@@H](C)CO` [Example 46, 8-(Benzyloxy)-N-[(2S)-1-hydroxypropan-2-yl]-2-methylimidazo[1,2-a]pyridine-3-carboxamide]: 3 µM.
The value for `Cc1nc2c(OCc3cccc(Cl)c3Cl)cccn2c1C(=O)NCCC1(O)CCCC1` [Example 47, 8-[(2,3-dichlorobenzyl)oxy]-N-[2-(1-hydroxycyclopentyl)ethyl]-2-methylimidazo[1,2-a]-pyridine-3-carboxamide] was 0.3 µM; that for `Cc1nc2c(OCc3ccccc3)cccn2c1C(=O)NCCC1(O)CCCC1` [Example 48, 8-(benzyloxy)-N-[2-(1-hydroxycyclopentyl)ethyl]-2-methylimidazo[1,2-a]pyridine-3-carboxamide] was 1 µM; that for `Cc1nc2c(OCc3cccc(Cl)c3Cl)cccn2c1C(=O)NC(CO)CO` [Example 49, 8-[(2,3-dichlorobenzyl)oxy]-N-(1,3-dihydroxypropan-2-yl)-2-methylimidazo[1,2-a]-pyridine-3-carboxamide] was 2 µM.
The same measure for `Cc1nc2c(OCc3ccccc3Cl)cccn2c1C(=O)NC(CO)CO` [Example 50, 8-[(2-chlorobenzyl)oxy]-N-(1,3-dihydroxypropan-2-yl)-2-methylimidazo[1,2-a]pyridine-3-carboxamide]: 6.5 µM; for `Cc1nc2c(OCc3ccccc3F)cccn2c1C(=O)NC(CO)CO` [Example 51, N-(1,3-dihydroxypropan-2-yl)-8-[(2-fluorobenzyl)oxy]-2-methylimidazo[1,2-a]pyridine-3-carboxamide]: 5.5 µM; for `Cc1cccc(COc2cccn3c(C(=O)NC(CO)CO)c(C)nc23)c1Cl` [Example 52, 8-[(2-chloro-3-methylbenzyl)oxy]-N-(1,3-dihydroxypropan-2-yl)-2-methylimidazo[1,2-a]-pyridine-3-carboxamide]: 10 µM.
Consider `Cc1nc2c(OCc3c(Cl)cccc3Cl)cccn2c1C(=O)NC(CO)CO` [Example 53, 8-[(2,6-dichlorobenzyl)oxy]-N-(1,3-dihydroxypropan-2-yl)-2-methylimidazo[1,2-a]-pyridine-3-carboxamide], for which the minimal effective concentration worked out at 10 µM.
With `Cc1nc2c(OCc3ccccc3Br)cccn2c1C(=O)NC(CO)CO` [Example 54, 8-[(2-bromobenzyl)oxy]-N-(1,3-dihydroxypropan-2-yl)-2-methylimidazo[1,2-a]pyridine-3-carboxamide], the minimal effective concentration was found to be 10 µM.
The value for `CCc1nc2c(OCC3CCCCC3)cccn2c1C(=O)N[C@H](C)CO` [Example 55, 8-(Cyclohexylmethoxy)-2-ethyl-N-[(2R)-1-hydroxypropan-2-yl]imidazo[1,2-a]pyridine-3-carboxamide formic acid salt] was 0.1 µM; that for `C[C@@H](CO)NC(=O)c1c(C(F)(F)F)nc2c(OCC3CCCCC3)cccn12` [Example 56, 8-(cyclohexylmethoxy)-N-[(2S)-1-hydroxypropan-2-yl]-2-(trifluoromethyl)imidazo[1,2-a]pyridine-3-carboxamide] was 1 µM.
Turning to `CCCc1nc2c(OCC3CCCCC3)cccn2c1C(=O)N[C@@H](C)CO` [Example 57, 8-(cyclohexylmethoxy)-N-[(2S)-1-hydroxypropan-2-yl]-2-propylimidazo[1,2-a]-pyridine-3-carboxamide], the minimal effective concentration was 1 µM.
The value for `CCc1nc2c(OCC3CCC3)cccn2c1C(=O)N[C@@H](C)CO` [Example 58, 8-(cyclobutylmethoxy)-2-ethyl-N-[(2S)-1-hydroxypropan-2-yl]imidazo[1,2-a]pyridine-3-carboxamide formic acid salt] was 3 µM.
The same measure for `C[C@@H](CO)NC(=O)c1cnc2c(OCC3CCCCC3)cccn12` [Example 59, 8-(cyclohexylmethoxy)-N-[(2S)-1-hydroxypropan-2-yl]imidazo[1,2-a]pyridine-3-carboxamide]: 3 µM; for `CCCC[C@H](CO)NC(=O)c1c(C)nc2c(OCc3c(F)cccc3F)cc(CC)cn12` [Example 60, 8-[(2,6-difluorobenzyl)oxy]-6-ethyl-N-[(2R)-1-hydroxyhexan-2-yl]-2-methylimidazo[1,2-a]pyridine-3-carboxamide]: 0.1 µM.
Consider `CCCC[C@H](CO)NC(=O)c1c(C)nc2c(OCc3c(F)cccc3F)cc(C3CC3)cn12` [Example 61, 6-cyclopropyl-8-[(2,6-difluorobenzyl)oxy]-N-[(2R)-1-hydroxyhexan-2-yl]-2-methylimidazo[1,2-a]pyridine-3-carboxamide], for which the minimal effective concentration came out at 1 µM.
As to `CCCC[C@H](CO)NC(=O)c1cnc2c(OCc3c(F)cccc3F)cccn12` [Example 62, 8-[(2,6-difluorobenzyl)oxy]-N-[(2R)-1-hydroxyhexan-2-yl]imidazo[1,2-a]pyridine-3-carboxamide], the minimal effective concentration came to 0.3 µM.
Consider `CCCC[C@H](CO)NC(=O)c1c(C)nc2c(OCc3c(F)cccc3F)cc(N3CCOCC3)cn12` [Example 63, 8-[(2,6-difluorobenzyl)oxy]-N-[(2R)-1-hydroxyhexan-2-yl]-2-methyl-6-(morpholin-4-yl)imidazo[1,2-a]pyridine-3-carboxamide], for which the minimal effective concentration was 3 µM.
The same measure for `CCCC[C@H](CO)NC(=O)c1c(C)nc2c(OCc3c(F)cccc3F)cc(N3CCCC3)cn12` [Example 64, 8-[(2,6-difluorobenzyl)oxy]-N-[(2R)-1-hydroxyhexan-2-yl]-2-methyl-6-(pyrrolidin-1-yl)imidazo[1,2-a]pyridine-3-carboxamide]: 3 µM; for `CCCC[C@H](CO)NC(=O)c1c(C)nc2c(OCc3c(F)cccc3F)cc(Br)cn12` [Example 65, 6-bromo-8-[(2,6-difluorobenzyl)oxy]-N-[(2R)-1-hydroxyhexan-2-yl]-2-methylimidazo[1,2-a]pyridine-3-carboxamide]: 0.03 µM.
Consider `CCC[C@H](CO)NC(=O)c1c(C)nc2c(OCC3CCCCC3)cccn12` [Example 67, 8-(cyclohexylmethoxy)-N-[(2R)-1-hydroxypentan-2-yl]-2-methylimidazo[1,2-a]pyridine-3-carboxamide], for which the minimal effective concentration turned out to be 0.03 µM.
